The target of the assay is T1, SmAbl2-TK (SmAbl2) (Schistosoma mansoni, UniProt D1H0Y8).
T1 construct: gene abl2; capped cRNA injected into Xenopus laevis stage VI oocytes
T1 sequence (D1H0Y8 283-538 limits assumed): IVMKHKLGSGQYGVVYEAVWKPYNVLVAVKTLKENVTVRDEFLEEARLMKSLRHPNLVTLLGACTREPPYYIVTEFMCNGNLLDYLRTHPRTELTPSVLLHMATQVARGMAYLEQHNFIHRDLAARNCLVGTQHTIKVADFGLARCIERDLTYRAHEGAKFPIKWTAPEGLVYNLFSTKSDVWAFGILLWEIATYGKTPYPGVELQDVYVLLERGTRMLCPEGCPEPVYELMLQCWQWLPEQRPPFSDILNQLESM
Briefly: germinal vesicle breakdown (GVBD) assay, cRNA-injected Xenopus oocytes. It counts as cell-based. The settings on record: remaining GVBD-inducing activity; ND96, 19 °C, 18 h after injection, pools of 10 oocytes.

Molecules are shown by their SMILES.

Consider `CO[C@H]1[C@@H](OC)C[C@H](C)[C@@H](OC)C2=CC(=O)C=C(NC(=O)/C(C)=C/C=C\[C@H](OC)[C@@H](OC(N)=O)/C(C)=C/[C@@H]1C)C2=O` [Herbimycin A], for which the “% GVBD at 10 μM” value worked out at 90%.

For the origin of these results see publication PMC4055459, “Imatinib Treatment Causes Substantial Transcriptional Changes in Adult Schistosoma mansoni In Vitro Exhibiting Pleiotropic Effects” (PLoS Neglected Tropical Diseases, 2014).
